Reference: ChEMBL document CHEMBL1134700, “Design, synthesis and characterisation of a peptide with oxaloacetate decarboxylase activity” (Bioorg Med Chem Lett, 2001)
“And” between values parts separate entries of the source, which are not always exact repeats. Equal entries are not always repeated.

What was measured:
[1] = system: CC(=O)NCC(=O)N1CCC[C@H]1C(=O)N[C@@H](CO)C(=O)N[C@@H](CCC(N)=O)C(=O)N1CCC[C@H]1C(=O)N[C@H](C(=O)N[C@@H](Cc1ccc(O)cc1)C(=O)N1CCC[C@H]1C(=O)NCC(=O)N[C@@H](CC(=O)O)C(=O)N[C@@H](CC(=O)O)C(=O)N[C@@H](C)C(=O)N1CCC[C@H]1C(=O)N[C@H](C(=O)N[C@@H](CCC(=O)O)C(=O)N[C@@H](CC(=O)O)C(=O)N[C@@H](CC(C)C)C(=O)N[C@@H](CCCCN)C(=O)N[C@@H](CCCN=C(N)N)C(=O)N[C@@H](Cc1ccccc1)C(=O)N[C@@H](Cc1ccc(O)cc1)C(=O)N[C@@H](CCCCN)C(=O)N[C@@H](CC(N)=O)C(=O)N[C@@H](CC(C)C)C(=O)N[C@@H](CCCCN)C(=O)N[C@@H](CCC(N)=O)C(=O)N[C@@H](Cc1ccc(O)cc1)C(=O)N[C@@H](CC(C)C)C(=O)N[C@@H](CCCCN)C(=O)N[C@H](C(=O)N[C@H](C(N)=O)C(C)C)C(C)C)C(C)C)[C@@H](C)O; assay: (§1) Decarboxylation of oxaloacetate to produce pyruvate was measured bythe conversion of NADH to NAD+ in the lactate dehydrogenase mediated transformation of pyruvate to lactate at a uM
[2] = system: CC(C)C[C@H](NC(=O)[C@H](C)NC(=O)[C@H](CCCCN)NC(=O)[C@H](CC(C)C)NC(=O)[C@H](CC(C)C)NC(=O)[C@@H](CCCCN)NC(=O)[C@H](C)NC(=O)[C@@H](N)CC(C)C)C(=O)N[C@@H](C)C(=O)N[C@@H](CCCCN)C(=O)N[C@@H](CC(C)C)C(=O)N[C@@H](CC(C)C)C(=O)N[C@@H](CCCCN)C(=O)N[C@@H](CCCCN)C(N)=O; assay: as §1
[3] = Decarboxylation of oxaloacetate to produce pyruvate was measured bythe conversion of NADH to NAD+ in the lactate dehydrogenase mediated transformation of pyruvate to lactate; expressed as Catalytic efficiency as the ratio of (kcat/KM)
[4] = molecular target: L-lactate dehydrogenase B chain (Sus scrofa) (UniProt P00336); assay: as §1
L-lactate dehydrogenase B chain (Sus scrofa), sequence (P00336 whole entry): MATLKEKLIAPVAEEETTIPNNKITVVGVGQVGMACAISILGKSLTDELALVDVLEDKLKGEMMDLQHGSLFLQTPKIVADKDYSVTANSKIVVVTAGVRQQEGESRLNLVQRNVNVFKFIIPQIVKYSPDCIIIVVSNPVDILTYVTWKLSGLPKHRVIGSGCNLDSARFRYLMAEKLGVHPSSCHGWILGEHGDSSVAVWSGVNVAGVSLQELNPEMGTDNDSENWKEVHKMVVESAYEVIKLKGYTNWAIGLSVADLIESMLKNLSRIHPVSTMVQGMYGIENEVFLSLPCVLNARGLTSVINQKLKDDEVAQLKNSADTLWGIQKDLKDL

[5] = Catalytic efficiency is the ratio of (kcat/KM)
[6] = molecular target: L-lactate dehydrogenase B chain (Sus scrofa) (UniProt P00336); assay: Decarboxylation of oxaloacetate to produce pyruvate was measured by the conversion of NADH to NAD+ in the lactate dehydrogenase mediated transformation of pyruvate to lactate at a uM

L-lactate dehydrogenase B chain (Sus scrofa), P00336, sequence (P00336 whole entry): as above

Molecule	k cat/Km [3]	k cat [4]	k cat/Km [5]	also measured
L-lactate dehydrogenase B chain (Sus scrofa), P00336	–	–	–	Km [1]: 49.4 mM; Km [2]: 48 mM
NCC(N)=O	0.011 M⁻¹ s⁻¹	–	–	–
CCCCN	0.0005 M⁻¹ s⁻¹	–	–	–
Ac-GPSQPTYPGDDAPVEDLKRFYKNLKQYLKVV-NH2	–	0.086 s⁻¹	1.74 M⁻¹ s⁻¹	–
CC(C)C[C@H](NC(=O)[C@H](C)NC(=O)[C@H](CCCCN)NC(=O)[C@H](CC(C)C)NC(=O)[C@H](CC(C)C)NC(=O)[C@@H](CCCCN)NC(=O)[C@H](C)NC(=O)[C@@H](N)CC(C)C)C(=O)N[C@@H](C)C(=O)N[C@@H](CCCCN)C(=O)N[C@@H](CC(C)C)C(=O)N[C@@H](CC(C)C)C(=O)N[C@@H](CCCCN)C(=O)N[C@@H](CCCCN)C(N)=O	–	0.0075 s⁻¹	0.153 M⁻¹ s⁻¹ and 0.071 M⁻¹ s⁻¹	k cat [6]: 0.015 s⁻¹
